Experimental data taken from patent US8017649B2, “Flavonoid compounds and uses thereof” (Howard Florey Institute of Experimental Physiology and …, priority 2005, dated 2011).
“Also recorded” adds a separate entry of the source.

What was measured:
[1] = tested on: myocardial ischaemia and reperfusion; conditions: Wang et al., British Journal of Pharmacology (2004) 142, 443-452; cited from earlier work
[2] = tested on: superoxide anions generated in rat aorta; assay: Superoxide anion production in rat isolated aortic segments (lucigenin chemiluminescence, NADPH); type: cell-based
Experimental: Superoxide anion production in rat isolated aortic segments was determined using lucigenin chemiluminescence. Aortic rings were prepared as described above and then placed in ice-cold Krebs-(N-[2-Hydroxyethyl]piperazine-N′-[2-ethanesulfonic acid] (HEPES buffer) (composition (mM); NaCl 99.0, KCl 4.7, KH2PO4 1.0, MgSO4·7H2O 1.2, D-glucose 11.0, NaHCO3 25.0, CaCl2·2H2O 2.5, Na-HEPES 20.0). Aortic rings were pre-incubated for 45 minutes at 37° C. with a pH 7.4, in Krebs-HEPES buffer containing diethylthiocarbamic acid (DETCA, 10^−3 M) to inactivate superoxide dismutase and β-nicotinamide adenine dinucleotide phosphate (NADPH, 10^−4 M) as a substrate for NADPH oxidase and either 3′,4′-dihydroxyflavonol (10^−4 M) as a positive control, vehicle, 3-hydroxyflavone-3-hemiadipate, 3′,4′-dihydroxy-3-hemiadipate, 3-hydroxyflavone-3-phosphate (10^−8-10^−4 M). Background photon emission was measured for 12 cycles in a 96-well Optiplate containing 0.3 ml per well of Krebs-HEPES buffer together with lucigenin (5×10^−5 M) and vehicle or flavonoid (10^−8-10^−4 M). Each cycle was counted every one minute. After background reading was completed the incubated aortic rings were transferred to the appropriate wells and photon emission was recounted as described above. The tissue was then placed in a 65° C. oven for 48 hours to allow superoxide production to be normalised to dry tissue weight.
The effects of vehicle, 3′,4′-dihydroxyflavone-3-hemiadipate (21) (DiOHF3HA, 10^−8 M-10^−4 M) and DiOHF (10^−4 M) in the presence and absence of Butyryl cholinesterase (BuCHE), 100, 300 and 1000 U/L) on the level of superoxide anions generated in rat isolated aortic segments in the presence of NADPH was expressed as a percentage of control. The method used was as described above except for the addition of the butyryl cholinesterase.
The effect of vehicle, 3-hydroxyflavone-3-phosphate (10^−8 to 10^−4 M) in the presence or absence of phosphatase (1000 U/L) on the level of superoxide anions generated in rat aorta in the presence of NADPH expressed as a percentage of control was determined as described above for the 3′,4′-dihydroxyflavone-3-hemiadipate.

[3] = tested on: endothelium intact aortic rings; assay: Effect on ACh relaxation of precontracted rat aortic rings; type: cell-based; conditions: substance alone
Experimental: (§1) After wash out and re-equilibration for 30 min, the aortic rings were then submaximally precontracted with PE and U46619, which were used to produce an active tension of 45-60% of the KPSS-induced maximum contraction. When investigating the effects of the flavonoids, flavonol, flavone-3-hemiadipate (F3HA), 3′, 4′-dihydroxyflavone, 3′,4′-dihydroxyflavonol, 3′,4′-dihydroxyflavone-3-hemiadipate (DiOHF3HA), and flavone-3-phosphate (F3P) on vasorelaxant responses, rings were incubated with one of the compounds for 20 mins before they were precontracted submaximally, followed by a cumulative-concentration response curve to ACh (100 nM-10 μM) or SNP ([…]). In experiments using F3P 1000U/L phosphatase was used in some experiments to cleave the phosphate. Some experiments were conducted in the presence and absence of butyryl cholinesterase (BuCHE, 1000 U/L) to cleave the adipate in DiOHF3HA and F3HA.

aortic rings = assay: Effect on SNP relaxation of precontracted rat aortic rings; type: cell-based
Experimental: as §1

| SMILES | infarct and injury associated with myocardial ischaemia and reperfusion [1] | effect on superoxide generation ([2]; in the presence of cleaving enzyme (BuCHE for hemiadipates, phosphatase for phosphate, 1000 U/L)) | effect on superoxide generation ([2]; substance alone, no added esterase/phosphatase, up to 10^−4 M, NADPH) | effect on relaxant response to ACh [3] | effect on relaxant response to SNP (aortic rings; in the presence of BuCHE or phosphatase) | effect on relaxant response to SNP (aortic rings; substance alone) |
| --- | --- | --- | --- | --- | --- | --- |
| O=c1c(O)c(-c2ccc(O)c(O)c2)oc2ccccc12 [DiOHF, 3′,4′-Dihydroxyflavonol, reference compound] | reduce Infarct and injury associated with myocardial ischaemia and reperfusion | – | – | – | – | – |
| O=C(O)CCCCC(=O)Oc1c(-c2ccc(O)c(O)c2)oc2ccccc2c1=O [DiOHF3HA, 3′,4′-dihydroxyflavone-3-hemiadipate] | – | concentration dependent inhibition of superoxide levels; also recorded: concentration dependent inhibitory effect; also recorded: inhibit superoxide levels produced by rat aorta | no inhibitory effect on superoxide generation; also recorded: no antioxidant or vascular activity | no effect on relaxant responses to ACh or SNP | significantly increased the sensitivity of the relaxant response to SNP | no effect on relaxant responses to ACh or SNP |
